Tested on: finishing Nelore cattle in feedlot
Experiment: Animal performance trial: Crina Ruminants and Ronozyme Rumistar for finishing Nelore cattle in feedlot
Type: in vivo
Protocol: The study has been carried out at facilities of Animal Science Department at ESALQ/USP (University of São Paulo), Piracicaba-SP, Brazil. Treatments have been allocated in fifty pens, with 6 animals per pen. Water has been supplied for ad libitum consumption and feed once a day. Cattle have been withheld from feed and water for 16 hours before body weight (BW) assessment at the beginning and at the end of the experiment. After 28 and 56 days body weight (BW) has been assessed to monitor the partial average daily gain. [table] [table]

In the case of `CC[C@@]1([C@@H]2O[C@@H]([C@H]3O[C@@](O)(CO)[C@H](C)C[C@@H]3C)C[C@@H]2C)CC[C@H]([C@]2(C)CC[C@]3(C[C@H](O)[C@@H](C)[C@@H]([C@@H](C)[C@@H](OC)[C@H](C)C(=O)O)O3)O2)O1` [MONENSIN, Monensin], the “ADG (average daily gain)” value (After 59 days) is reported as 1.342b kg/d, the “DMI (dry matter intake)” value (After 59 days) is reported as 8.63b kg/d and the “FE (feed efficiency), ADG:DMI” value (After 59 days) is reported as 0.155b. The “ADG (average daily gain)” value (adaptation period - 28 days) was 1.352b kg/d, the “DMI (dry matter intake)” value (adaptation period - 28 days) was 7.73b kg/d and the “FE (feed efficiency), ADG:DMI” value (adaptation period - 28 days) was 0.177bc.

Source: patent US10610575B2, “Method for improving feed digestibility in bovine animals” (DSM IP ASSETS B.V., priority 2015, dated 2020)
